Measured values reported in PubChem BioAssay (NCI).
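The concentration for 50% growth inhibition is given as GI50. The concentration for full growth arrest is given as TGI.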

What was measured:
Assay in all cases: growth of human tumour cells (NCI), 384-well format
[1] = system: 786-0 renal
[2] = system: A498 renal
[3] = system: A549 NSCLC
[4] = system: ACHN renal
[5] = system: BT-549 breast
[6] = system: CAKI-1 renal
[7] = system: CCRF-CEM leukemia
[8] = system: COLO 205 colon
[9] = system: DU-145 prostate
[10] = system: EKVX NSCLC
[11] = system: HCC-2998 colon
[12] = system: HCT-116 colon
[13] = system: HCT-15 colon
[14] = system: HL-60(TB) leukemia
[15] = system: HOP-62 NSCLC
[16] = system: HOP-92 NSCLC
[17] = system: HS 578T breast
[18] = system: HT29 colon
[19] = system: IGROV1 ovarian
[20] = system: K-562 leukemia
[21] = system: KM12 colon
[22] = system: LOX IMVI melanoma
[23] = system: M14 melanoma
[24] = system: MALME-3M melanoma
[25] = system: MCF7 breast
[26] = system: MDA-MB-231 breast
[27] = system: MDA-MB-435 melanoma
[28] = system: MDA-MB-468 breast
[29] = system: MOLT-4 leukemia
[30] = system: NCI-H23 lung
[31] = system: NCI-H322M lung
[32] = system: NCI-H460 NSCLC
[33] = system: NCI-H522 lung
[34] = system: NCI/ADR-RES ovarian
[35] = system: OVCAR-3 ovarian
[36] = system: OVCAR-4 ovarian
[37] = system: OVCAR-5 ovarian
[38] = system: OVCAR-8 ovarian
[39] = system: PC-3 prostate
[40] = system: RPMI-8226 leukemia
[41] = system: RXF 393 renal
[42] = system: SF-268 CNS
[43] = system: SF-295 CNS
[44] = system: SF-539 CNS
[45] = system: SK-MEL-2 melanoma
[46] = system: SK-MEL-28 melanoma
[47] = system: SK-MEL-5 melanoma
[48] = system: SK-OV-3 ovarian
[49] = system: SN12C renal
[50] = system: SNB-19 CNS
[51] = system: SNB-75 CNS
[52] = system: SR leukemia
[53] = system: SW-620 colon
[54] = system: T-47D breast
[55] = system: TK-10 renal
[56] = system: U251 glioblastoma
[57] = system: UACC-257 melanoma
[58] = system: UACC-62 melanoma

With `COc1cc(F)ccc1-c1ncnc(Nc2cccc(CS(C)(=N)=O)c2)n1` (centres undefined) the GI50 [1] was 0.683 µM, the TGI [1] was 3.88 µM and the GI50 [2] was 0.448 µM. The GI50 [3] was 1.61 µM, the TGI [3] was over 100 µM and the GI50 [4] was 0.51 µM. For the same compound, the TGI [4] was over 100 µM, the GI50 [5] was 0.773 µM and the TGI [5] was 2.6 µM. For the same compound, the GI50 [6] was 0.404 µM, the TGI [6] was over 100 µM and the GI50 [7] was 0.299 µM. For the same compound, the TGI [7] was 1.05 µM, the GI50 [8] was 0.339 µM and the TGI [8] was 1.92 µM. The GI50 [9] was 0.402 µM, the TGI [9] was 3.75 µM and the GI50 [10] was 1.28 µM. For the same compound, the TGI [10] was 4.28 µM, the GI50 [11] was 1 µM and the TGI [11] was 3.77 µM. It also gave a GI50 [12] of 0.3 µM, a TGI [12] of over 100 µM and a GI50 [13] of 0.462 µM. The GI50 [14] was 0.182 µM, the TGI [14] was 0.391 µM and the GI50 [15] was 0.33 µM. It also gave a TGI [15] of 1.5 µM, a GI50 [16] of 1.7 µM and a TGI [16] of over 23.9 µM. It also gave a GI50 [17] of 0.465 µM, a TGI [17] of 1.69 µM and a GI50 [18] of 1.4 µM. For the same compound, the TGI [18] was 4.15 µM, the GI50 [19] was 0.919 µM and the TGI [19] was over 100 µM. For the same compound, the GI50 [20] was 2 µM, the TGI [20] was 15 µM and the GI50 [21] was 0.322 µM. It also gave a TGI [21] of 2.12 µM, a GI50 [22] of 0.312 µM and a TGI [22] of 1.66 µM. The GI50 [23] was 0.98 µM, the TGI [23] was 3.86 µM and the GI50 [24] was 0.843 µM. The TGI [24] was 2.3 µM, the GI50 [25] was 0.408 µM and the TGI [25] was over 100 µM. The GI50 [26] was 0.559 µM, the TGI [26] was 2.68 µM and the GI50 [27] was 1.44 µM. The TGI [27] was over 19.7 µM, the GI50 [28] was 1.12 µM and the TGI [28] was 2.47 µM. The GI50 [29] was 0.506 µM, the TGI [29] was 1.62 µM and the GI50 [30] was 0.568 µM. It also gave a TGI [30] of 2.24 µM, a GI50 [31] of 0.384 µM and a TGI [31] of 2.61 µM. The GI50 [32] was 0.815 µM, the TGI [32] was 3.56 µM and the GI50 [33] was 1.77 µM. For the same compound, the TGI [33] was 4.12 µM, the GI50 [34] was 2.58 µM and the TGI [34] was 21.8 µM. The GI50 [35] was 0.384 µM, the TGI [35] was 1.81 µM and the GI50 [36] was 1.83 µM. The TGI [36] was 6.09 µM, the GI50 [37] was 0.316 µM and the TGI [37] was over 100 µM. It also gave a GI50 [38] of 0.52 µM, a TGI [38] of 2.61 µM and a GI50 [39] of 0.795 µM. For the same compound, the TGI [39] was 4.96 µM, the GI50 [40] was 1.7 µM and the TGI [40] was 3.08 µM. The GI50 [41] was 0.228 µM, the TGI [41] was 0.586 µM and the GI50 [42] was 0.331 µM. The TGI [42] was 1.41 µM, the GI50 [43] was 1.21 µM and the TGI [43] was 5.07 µM. For the same compound, the GI50 [44] was 0.986 µM, the TGI [44] was 2.82 µM and the GI50 [45] was 1.04 µM. The TGI [45] was 2.46 µM, the GI50 [46] was 0.572 µM and the TGI [46] was 2.36 µM. The GI50 [47] was 0.455 µM, the TGI [47] was 1.84 µM and the GI50 [48] was 2.55 µM. For the same compound, the TGI [48] was 6.68 µM, the GI50 [49] was 0.668 µM and the TGI [49] was 3.52 µM. For the same compound, the GI50 [50] was 0.988 µM, the TGI [50] was over 100 µM and the GI50 [51] was 0.592 µM. For the same compound, the TGI [51] was 2.18 µM, the GI50 [52] was 0.0395 µM and the TGI [52] was 0.112 µM. For the same compound, the GI50 [53] was 0.776 µM, the TGI [53] was 4.82 µM and the GI50 [54] was 3.01 µM. The TGI [54] was over 100 µM, the GI50 [55] was 0.819 µM and the TGI [55] was over 100 µM. It also gave a GI50 [56] of 0.872 µM, a TGI [56] of over 19.9 µM and a GI50 [57] of 1.6 µM. It also gave a TGI [57] of 3.44 µM, a GI50 [58] of 0.24 µM and a TGI [58] of 1.08 µM.
